Patent US8921267B2, “Safening 6-(trisubstituted phenyl)-4-amino-2-pyridinecarboxylate herbicide injury on cereal crops” (Dow AgroSciences LLC, priority 2008, dated 2014)

Key:
[1] = tested on: wheat (Triticum aestivum L; TRZAW); assay: Postemergence herbicidal safening, greenhouse, visual injury: wheat (TRZAW); format: in vivo
Procedure: (§1) Evaluation of Postemergence Herbicidal Safening in Cereal Crops
(§2) Seeds of the desired test plant species were planted in Sun Gro MetroMix® 306 planting mixture, which typically has a pH of 6.0 to 6.8 and an organic matter content of about 30 percent, in plastic pots with a surface area of 103.2 square centimeters (cm^2). When required to ensure good germination and healthy plants, a fungicide treatment and/or other chemical or physical treatment was applied. The plants were grown for 7-36 days (d) in a greenhouse with an approximate 14-hour (h) photoperiod which was maintained at about 18° C. during the day and 17° C. during the night. Nutrients and water were added on a regular basis and supplemental lighting was provided with overhead metal halide 1000-Watt lamps as necessary. The plants were employed for testing when they reached the second or third true leaf stage.
(§3) Weighed amounts of esters (methyl) or salts (TEA [triethylammonium], K [potassium]) of 4-amino-3-chloro-6-(4-chloro-2-fluoro-3-methoxyphenyl)pyridine-2-carboxylic acid (Compound 1) were dissolved in a volume of 97:3 volume/volume (v/v) acetone/dimethylsulfoxide (DMSO) to obtain stock solutions. […] The concentrated stock solutions were diluted with an aqueous mixture of 1.5% v/v of Agri-dex crop oil concentrate to provide the appropriate application rates. Compound requirements are based upon a 12 mL application volume at a rate of 187 liters per hectare (L/ha). Stocks solutions of the safeners were prepared following the same procedure. Spray solutions of the safeners and experimental compound mixtures were prepared by adding the stock solutions to the appropriate amount of dilution solution to form a 12 mL spray solution with active ingredients in two-way combinations. Formulated compounds were applied to the plant material with an overhead Mandel track sprayer equipped with 8002E nozzles calibrated to deliver 187 L/ha over an application area of 0.503 square meters (m^2) at a spray height of 18 inches (43 centimeters (cm)) above average plant canopy. Control plants were sprayed in the same manner with the solvent blank.
(§4) The treated plants and control plants were placed in a greenhouse as described above and watered by sub-irrigation to prevent wash-off of the test compounds. After 20-22 d, the condition of the test plants as compared with that of the control plants was determined visually and scored on a scale of 0 to 100 percent where 0 corresponds to no injury and 100 corresponds to complete kill.
(§5) Colby's equation was used to determine the herbicidal effects expected from the mixtures (Colby, S. R. Calculation of the synergistic and antagonistic response of herbicide combinations. Weeds 1967, 15, 20-22.).
(§6) The following equation was used to calculate the expected activity of mixtures containing two active ingredients, A and B: Expected=A+B−(A×B/100)
(§7) A=observed efficacy of active ingredient A at the same concentration as used in the mixture.
(§8) B=observed efficacy of active ingredient B at the same concentration as used in the mixture.

[2] = tested on: barley (HORVW); assay: Postemergence herbicidal safening, greenhouse, visual injury: barley (HORVW)
[3] = tested on: bird's-eye speedwell (Veronica persica L; VERPE); assay: Postemergence herbicidal activity, greenhouse, visual injury: bird's-eye speedwell; format: in vivo; parameters: key: visual injury, 0–100%: 0 = no injury, 100 = complete kill
Procedure: as §1, §2, §3, §4, §5, §6, §7, §8

[4] = tested on: wild buckwheat (Polygonum convolvulus L; POLCO); assay: Postemergence herbicidal activity, greenhouse, visual injury: wild buckwheat; format: in vivo
Procedure: as §1, §2, §3, §4, §5, §6, §7, §8

[5] = tested on: durum wheat (Triticum durum L; TRZDU); assay: Postemergence herbicidal safening, greenhouse, visual injury: durum wheat; format: in vivo
Procedure: as §1, §2, §3, §4, §5, §6, §7, §8

[6] = tested on: wild pansy (Viola tricolor L; VIOTR); assay: Postemergence herbicidal activity, greenhouse, visual injury: wild pansy; format: in vivo; parameters: key: visual injury, 0–100%: 0 = no injury, 100 = complete kill
Procedure: as §1, §2, §3, §4, §5, §6, §7, §8

[7] = tested on: Russian thistle (Salsola iberica L; SASKR); assay: Postemergence herbicidal activity, greenhouse, visual injury: Russian thistle; format: in vivo; parameters: key: visual injury, 0–100%: 0 = no injury, 100 = complete kill
Procedure: as §1, §2, §3, §4, §5, §6, §7, §8

[8] = tested on: purple deadnettle (Lamium purpureum L; LAMPU); assay: Postemergence herbicidal activity, greenhouse, visual injury: purple deadnettle; format: in vivo; parameters: key: visual injury, 0–100%: 0 = no injury, 100 = complete kill
In short: (§9)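 Greenhouse-grown weeds at second–third true leaf stage were sprayed postemergence at 187 L/ha with safener/herbicide two-way mixtures in 1.5% v/v crop oil concentrate. Visual injury was scored 0–100% against solvent-blank controls after 20-22 d. Expected mixture activity was computed by Colby's equation.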

[9] = tested on: corn poppy (Papaver rhoeas L; PAPRH); assay: Postemergence herbicidal activity, greenhouse, visual injury: corn poppy; format: in vivo
In short: as §9

[10] = tested on: wheat (Triticum aestivum L; TRZAS); assay: Postemergence herbicidal safening, greenhouse, visual injury: wheat; format: in vivo
In short: (§10)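 Percent visual injury relative to solvent-blank controls, rated 20-22 d after treatment on a 0 (none) to 100 (complete kill) scale. Expected mixture response came from Colby's equation, Expected=A+B−(A×B/100). Sprays contained 1.5% v/v crop oil concentrate at 187 L/ha.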

[11] = tested on: barley (Hordeum vulgare L; HORVS); assay: Postemergence herbicidal safening, greenhouse, visual injury: barley; format: in vivo
In short: as §10

[12] = tested on: chickweed (Stellaria media L; STEME); assay: Postemergence herbicidal activity, greenhouse, visual injury: chickweed; format: in vivo; parameters: key: visual injury, 0–100%: 0 = no injury, 100 = complete kill
Procedure: as §1, §2, §3, §4, §5, §6, §7, §8

[13] = tested on: cleavers (Galium aparine L; GALAP); assay: Postemergence herbicidal activity, greenhouse, visual injury: cleavers; format: in vivo; parameters: key: visual injury, 0–100%: 0 = no injury, 100 = complete kill
Procedure: as §1, §2, §3, §4, §5, §6, §7, §8

NC(=O)NS(=O)(=O)c1ccccc1Cl [Compound 2-CBSU, N-(aminocarbonyl)-2-chlorobenzenesulfonamide, reference compound]
TRZAW Ob (Observed values) ([1]; safener 4.4 g/ha alone): 0% | TRZAW Ob (Observed values) ([1]; safener 8.8 g/ha alone): 0% | TRZAW Ob (Observed values) ([1]; safener 17.5 g/ha alone): 0% | TRZAW Ob (Observed values) ([1]; safener 35 g/ha alone): 0% | HORVW Ob (Observed values) ([2]; safener 4.4 g/ha alone): 0% | HORVW Ob (Observed values) ([2]; safener 8.8 g/ha alone): 0% | HORVW Ob (Observed values) ([2]; safener 17.5 g/ha alone): 0% | HORVW Ob (Observed values) ([2]; safener 35 g/ha alone): 0% | VERPE Ob ([3]; applied alone at 17.5 g/ha): 0% | VERPE Ob ([3]; applied alone at 35 g/ha): 0% | VERPE Ob ([3]; applied alone at 70 g/ha): 0% | VERPE Ob ([3]; applied alone at 140 g/ha): 0% | POLCO Ob ([4]; applied alone at 17.5 g/ha): 0% | POLCO Ob ([4]; applied alone at 35 g/ha): 0% | POLCO Ob ([4]; applied alone at 70 g/ha): 0% | POLCO Ob ([4]; applied alone at 140 g/ha): 0% | TRZDU Ob (Observed values) ([5]; safener 4.4 g/ha alone): 0% | TRZDU Ob (Observed values) ([5]; safener 8.8 g/ha alone): 0% | TRZDU Ob (Observed values) ([5]; safener 17.5 g/ha alone): 0% | TRZDU Ob (Observed values) ([5]; safener 35 g/ha alone): 0% | VIOTR Ob ([6]; applied alone at 17.5 g/ha): 0% | VIOTR Ob ([6]; applied alone at 35 g/ha): 0% | VIOTR Ob ([6]; applied alone at 70 g/ha): 0% | VIOTR Ob ([6]; applied alone at 140 g/ha): 0% | SASKR Ob ([7]; applied alone at 17.5 g/ha): 0% | SASKR Ob ([7]; applied alone at 35 g/ha): 0% | SASKR Ob ([7]; applied alone at 70 g/ha): 0% | SASKR Ob ([7]; applied alone at 140 g/ha): 0% | LAMPU Ob (Observed values) ([8]; safener 4.4 g/ha alone): 0 | LAMPU Ob (Observed values) ([8]; safener 8.8 g/ha alone): 0 | LAMPU Ob (Observed values) ([8]; safener 17.5 g/ha alone): 0 | LAMPU Ob (Observed values) ([8]; safener 35 g/ha alone): 0 | PAPRH Ob ([9]; applied alone at 17.5 g/ha): 0% | PAPRH Ob ([9]; applied alone at 35 g/ha): 0% | PAPRH Ob ([9]; applied alone at 70 g/ha): 0% | PAPRH Ob ([9]; applied alone at 140 g/ha): 0% | PAPRH Ob (Observed values) ([9]; safener 4.4 g/ha alone): 0 | PAPRH Ob (Observed values) ([9]; safener 8.8 g/ha alone): 0 | PAPRH Ob (Observed values) ([9]; safener 17.5 g/ha alone): 0 | PAPRH Ob (Observed values) ([9]; safener 35 g/ha alone): 0 | TRZAS Ob ([10]; applied alone at 17.5 g/ha): 0% | TRZAS Ob ([10]; applied alone at 35 g/ha): 0% | TRZAS Ob ([10]; applied alone at 70 g/ha): 0% | TRZAS Ob ([10]; applied alone at 140 g/ha): 0% | HORVS Ob ([11]; applied alone at 17.5 g/ha): 0% | HORVS Ob ([11]; applied alone at 35 g/ha): 0% | HORVS Ob ([11]; applied alone at 70 g/ha): 0% | HORVS Ob ([11]; applied alone at 140 g/ha): 0% | STEME Ob ([12]; applied alone at 17.5 g/ha): 0% | STEME Ob ([12]; applied alone at 35 g/ha): 0% | STEME Ob ([12]; applied alone at 70 g/ha): 0% | STEME Ob ([12]; applied alone at 140 g/ha): 0% | GALAP Ob ([13]; applied alone at 17.5 g/ha): 0% | GALAP Ob ([13]; applied alone at 35 g/ha): 0% | GALAP Ob ([13]; applied alone at 70 g/ha): 0% | GALAP Ob ([13]; applied alone at 140 g/ha): 0%
